{"source": "paper PMC6386909", "about": "“Dasatinib/HP-β-CD Inclusion Complex Based Aqueous Formulation as a Promising Tool for the Treatment of Paediatric Neuromuscular Disorders” (International Journal of Molecular Sciences, 2019)", "key": {"[1]": {"assay": "DAS solubility at 25 °C in different environments", "assay_type": "physicochemical", "details": "pH 6, Water (ultrapure, pH about 6.0)", "protocol": "(§1) The phase solubility study was conducted in accordance with Higuchi and Connors. In detail, DAS was added in excess to an aqueous solution containing HP-β-CD in the appropriate concentration (0–10% w/v) until saturation and the suspensions thus obtained were placed in 4 mL vials with screw cap to avoid changes that are caused by evaporation. The obtained mixtures were vortexed for about 5 min and then placed in a thermostat bath at 25 °C for three days.\n(§2) Subsequently, an aliquot of the aqueous phase of each mixture was transferred into a 5 mL glass syringe and filtered through a 0.22 μm cellulose acetate membrane filter (Millipore®, Milan, Italy).\n(§3) The obtained filtrate was suitably diluted and subjected to subsequent HPLC analysis for the quantification of the drug. All of the determinations were conducted in triplicate."}, "[2]": {"assay": "Phase solubility study of DAS with HP-β-CD in water (Higuchi-Connors)", "assay_type": "physicochemical", "details": "25 °C", "protocol": "as §1, §2, §3\nThe obtained data were used to determine the apparent stability 1:1 constant (K1:1) of the DAS/HP-β-CD inclusion complex, using the slope of the phase solubility diagrams straight line, as reported by Higuchi and Connors in the following equation:(1) K1:1=slope/S0(1−slope) where S0 represents DAS solubility in absence of cyclodextrin determined in the same way."}, "[3]": {"assay": "Dissolution studies at 37 °C (BIODIS USP III apparatus)", "assay_type": "physicochemical", "details": "HCl 0.05 M pH 1.2, 37 °C, after approximately 420 min", "protocol": "Dissolution experiments were performed at 37 °C using a BIODIS USP III apparatus (Varian Inc., Cary North Carolina, CA, USA), equipped with a rod stirrer maintaining a rotational speed of 100 rpm during the test. Samples of DAS or DAS/HP-β-CD solid complex, equivalent to about 2 mg of DAS, were suspended in the dissolution medium (80 mL of 0.05 M phosphate buffer at pH 7.4 or HCl 0.05 M pH = 1.2). The volume of 80 mL was chosen taking into account the HPLC quantification limit for the determination of DAS.\nAt predetermined time intervals, 600 µL of suspension were collected and, in order to keep constant the initial volume, 600 μL of the same dissolution medium previously thermostated at the same temperature were added. Samples were subsequently filtered using a 0.22 µm membrane filter (Millipore® cellulose acetate), and the filtrates thus obtained were subjected to HPLC analysis after appropriate dilution. For quantitative analysis the calibration curve previously constructed was used and the dissolution profiles shown correspond to the average of three determinations."}, "[4]": {"system": "C2C12 cells", "assay": "Cytotoxicity / cell viability (CCK-8)", "assay_type": "cell-based, murine", "details": "C2C12 myoblasts, 0.1–100 μM, 5 h treatment", "protocol": "C2C12 myocytes were cultured in DMEM that was supplemented with 10% fetal bovine serum, 1% penicillin, 1% streptomycin and 1% glutamine and were maintained at 37 °C in 5% CO2/95% air. Cell viability was evaluated by measuring the succinic dehydrogenases activity in the cell suspension using the cell counting Kit-8 (CCK-8) (Sigma Aldrich), which utilizes a highly water-soluble tetrazolium salt and whose detection sensitivity is higher than other tetrazolium salts.\nCells were seeded in 96-well cultures at a density of approximately 4.5 × 10^3 cells per well and then cultured for 16 h. Afterwards, the cells were treated for 5 h with free DAS (in DMSO <0.15% in order to ensure cellular vitality) or complexed with HP-β-CD, but at the same concentration calculated on the basis of the incorporation degree, both being dissolved in DMEM. Following exposure, 10 μL of CCK-8 were added into each well and then the plate was incubated for additional two hours. The absorbance at 450 nm was measured using a spectrophotometer (microplate reader Victor V31420–40; PerkinElmer, Wellesley, Massachusetts). […] The results are expressed as the percentage of the control and presented as the mean ± SD. Each data is from 24–48 replicates (wells) and 6–9 different culture dishes."}, "[5]": {"assay": "Pharmacokinetic analysis of DAS in quadriceps and liver after oral treatment", "assay_type": "in vivo, C57Bl/6J mice", "details": "DAS/HP-β-CD inclusion complex 15 mg/kg in drinking water for 1 week, WT mice", "method": "A total of 10 sedentary WT male mice C57Bl/6J (Charles River, Italy for Jackson Laboratories), homogeneous for age and body weight (BW) were divided into 2 groups as follows: 4 WT mice vehicle-treated (HP-β-CD 10%) and 6 WT mice treated with DAS/HP-β-CD inclusion complex at the dose of 15 mg/Kg. Drug and vehicle were administered in drinking water for 1 week.\nIn detail, analysis was performed in quadriceps (Quad) and livers of treated animals. Tissues were individually weighed into a \"FastPrep\" tube and PBS was added (3:1 ratio). Each tube was placed in the fast prep homogenizer on a predetermined 1min cycle to ensure complete homogenization. 40 µL of each homogenate was aliquoted to a fresh tube and 50 µL of MeOH plus 150 µL of Methanol-containing Internal standard (25 ng/mL Imipramine HCl) was added. Each sample was mixed on a Bioshake for 1 min and then transferred to the freezer at −20 °C for at least two hours prior centrifugation at 2500 × g for 20 min. The supernatants were then transferred to a 96-well plate for sampling by the LC-MS/MS. A Thermo TSQ Quantiva with Thermo Vanquish UHPLC system was used (Thermo Fisher Scientific Inc, Milan, Italy). […] Quantitative analysis was conducted by MRM at 232.06 to 401.11 m/z for DAS inclusion complex and at 86.10 to 193.04 m/z for the internal standard Imipramine. […]"}, "[6]": {"design": "method as in PMID 26604135", "details": "cited from earlier work"}, "[7]": {"system": "Src-TK", "design": "method as in PMID 25658745", "details": "cited from earlier work"}, "[8]": {"system": "cancer cell growth", "details": "no reference given; cited from earlier work"}, "[9]": {"details": "known values, no reference given; cited from earlier work"}}, "note": "Several values for one entry are separate records, joined by “and”; a condition that tells them apart may be missing. Equal values may be shown once."}
{"compound": "Cc1nc(Nc2ncc(C(=O)Nc3c(C)cccc3Cl)s2)cc(N2CCN(CCO)CC2)n1", "note": "[DAS, N-(2-chloro-6-methylphenyl)-2-[[6-[4-(2-hydroxyethyl)piperazin-1-yl]-2-methylpyrimidin-4-yl]amino]-1,3-thiazole-5-carboxamide]", "values": [{"measurement": "solubility at 3 days", "setting": "[1]; read-out: DAS Solubility", "value": 1.33, "unit": "µM"}, {"measurement": "solubility at 3 days", "setting": "[1]; read-out: DAS Solubility (mg/mL)", "value": 0.000649, "unit": "mg/mL"}, {"measurement": "1:1 apparent formation (complexation) constant K1:1", "setting": "[2]; DAS with HP-β-CD, from linear portion (0–6% HP-β-CD) of the phase solubility diagram", "value": 922.13, "unit": "M⁻¹"}, {"measurement": "solubility at 3 days", "setting": "[2]; aqueous HP-β-CD solution, aqueous with cosolvent or surfactant or cyclodextrin, thermodynamic from solid, 6% w/v of HP-β-CD, read-out: DAS aqueous solubility in the presence of HP-β-CD", "value": "29 µM and 14 µg/mL"}, {"measurement": "quantity of drug dissolved", "setting": "[3]", "value": "approximately 81%"}, {"measurement": "cytotoxic effect on cell viability", "setting": "[4]", "value": "cytotoxic only at high concentrations"}, {"measurement": "DAS levels in quadriceps and livers", "setting": "[5]", "value": "Appreciable drugs’ levels were found in quadriceps and livers"}, {"measurement": "pKa", "setting": "[6]", "value": 10.28}, {"measurement": "inhibition of Src-TK, concentration range", "setting": "[7]", "value": "nanomolar range"}, {"measurement": "IC50 values known to inhibit cancer cell growth", "setting": "[8]", "value": "nM range"}, {"measurement": "therapeutic plasma levels", "setting": "[9]", "value": "low µM values"}]}
